Experiment: recombinant barcode read abundance after kanamycin selection (control-corrected) (log10(CPM+1)); higher = more efficient recombination; sequences stand for … in AGTGCAGAGAAAATCGGCCAGTTTTCTCTGCCTGCAGTCCGCATGCCGT…AGATTTATGCAGCGGACTGCCTTTCTCCCAAAGTGATAAACCGGACAGTATCATGGACCGGTTTTCCCGGTAATCCGTATTTGCAAGGTTGGTTTCACT; site = the 11-nt target
In short: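 In E. coli, a pooled library matched targets to IS621 bridge RNA target-binding loops and was introduced alongside a donor plasmid. Cells went onto chloramphenicol/ampicillin/kanamycin with 0.1 mM IPTG or onto chloramphenicol/ampicillin LB agar as control, in duplicate. Recombination efficiency, from recombinant-junction barcodes as counts per million, is averaged and control-corrected. It is reported as log10(CPM+1).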
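Note: IS621 recombinase and bridge RNA in Escherichia coli cells.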

Sequence	recombinant barcode read abundance (log10)
GTAAACTCTTGGGTTCTAACCTGTTGCCT (site GTGAACTCTAG)	0.0821
GTAAACTCTTGGGTTCTAACCTGTTGCCT (site GTTAACTCTAG)	0.427
GTAAAGTCTTGGGTTCTAACCTGTTGCCA (site CTAAAGTCTTG)	0.0579
GTAAAGTCTTGGGTTCTAACCTGTTGCCA (site GTAAAGTCTTG)	0.276
GTAAATCCTTGGGTTCTAACCTGTTGCCT (site ATAAATCCTAG)	0.141
GTAAATCCTTGGGTTCTAACCTGTTGCCT (site CTAAATCCTAG)	0.222
GTAAATCCTTGGGTTCTAACCTGTTGCCT (site GTAAATCCTAG)	1.01
GTAAATCCTTGGGTTCTAACCTGTTGCCT (site TTAAATCCTAG)	0.132
GTAAATGCTTGGGTTCTAACCTGTTGCCT (site GTAAATGCTAG)	1.36
GTAAATGCTTGGGTTCTAACCTGTTGCCT (site GTAACTGCTAG)	0.0397
GTAAATGCTTGGGTTCTAACCTGTTGCCT (site GTAAGTGCTAG)	0.0927
GTAAATGCTTGGGTTCTAACCTGTTGCCT (site GTAATTGCTAG)	0.0782
GTAACCGCTTGGGTTCTAACCTGTTGCCT (site GTAACCGCTAG)	1.64
GTAACCGCTTGGGTTCTAACCTGTTGCCT (site GTCACCGCTAG)	0.228
GTAACCGCTTGGGTTCTAACCTGTTGCCT (site GTGACCGCTAG)	0.115
GTAACCGCTTGGGTTCTAACCTGTTGCCT (site GTTACCGCTAG)	0.432
GTAACCTCTTGGGTTCTAACCTGTTGCCA (site GTAACCTCTAG)	0.904
GTAACCTCTTGGGTTCTAACCTGTTGCCA (site GTAACCTCTCG)	0
GTAACCTCTTGGGTTCTAACCTGTTGCCA (site GTAACCTCTGG)	0.0508
GTAACCTCTTGGGTTCTAACCTGTTGCCA (site GTAACCTCTTG)	0.983
GTAACCTCTTGGGTTCTAACCTGTTGCCG (site GTAACCTCTAG)	0.861
GTAACCTCTTGGGTTCTAACCTGTTGCCG (site GTAACCTCTCG)	1.48

Sequence	recombinant barcode read abundance (log10)
GTAACCTCTTGGGTTCTAACCTGTTGCCG (site GTAACCTCTGG)	0.0296
GTAACCTCTTGGGTTCTAACCTGTTGCCG (site GTAACCTCTTG)	0.0357
GTAAGATCTTGGGTTCTAACCTGTTGCAC (site AGGCCCGCTCC)	0.0896
GTAAGATCTTGGGTTCTAACCTGTTGCAC (site GTAAGATCTGT)	2.12
GTAAGTACTTGGGTTCTAACCTGTTGCTT (site GTAAGAACTAA)	0.169
GTAAGTACTTGGGTTCTAACCTGTTGCTT (site GTAAGCACTAA)	0.233
GTAAGTACTTGGGTTCTAACCTGTTGCTT (site GTAAGGACTAA)	0.159
GTAAGTACTTGGGTTCTAACCTGTTGCTT (site GTAAGTACTAA)	0.221
GTAAGTCCTTGGGTTCTAACCTGTTGCGA (site GTAAGTCCTTC)	2.14
GTAAGTCCTTGGGTTCTAACCTGTTGCGA (site GTGAGTCCTCC)	0.0113
GTAAGTGCTTGGGTTCTAACCTGTTGCCT (site GTAAATGCTAG)	0.0588
GTAAGTGCTTGGGTTCTAACCTGTTGCCT (site GTAACTGCTAG)	0.0692
GTAAGTGCTTGGGTTCTAACCTGTTGCCT (site GTAAGTGCTAG)	1.28
GTAAGTGCTTGGGTTCTAACCTGTTGCCT (site GTAATTGCTAG)	0.187
GTAATGACTTGGGTTCTAACCTGTTGCCT (site GAAATGACTAG)	0.403
GTAATGACTTGGGTTCTAACCTGTTGCCT (site GCAATGACTAG)	0.194
GTAATGACTTGGGTTCTAACCTGTTGCCT (site GGAATGACTAG)	0.105
GTAATGACTTGGGTTCTAACCTGTTGCCT (site GTAATGACTAG)	1.6
GTAATGTCTTGGGTTCTAACCTGTTGCCT (site GAAATGTCTAG)	0.284
GTAATGTCTTGGGTTCTAACCTGTTGCCT (site GCAATGTCTAG)	0.289
GTAATGTCTTGGGTTCTAACCTGTTGCCT (site GGAATGTCTAG)	0.112
GTAATGTCTTGGGTTCTAACCTGTTGCCT (site GTAATGTCTAG)	2.04

Sequence	recombinant barcode read abundance (log10)
GTACAATCTTGGGTTCTAACCTGTTGCCT (site ATACAATCTAG)	0.947
GTACAATCTTGGGTTCTAACCTGTTGCCT (site CTACAATCTAG)	0.339
GTACAATCTTGGGTTCTAACCTGTTGCCT (site GTACAATCTAG)	1.43
GTACAATCTTGGGTTCTAACCTGTTGCCT (site TTACAATCTAG)	0.371
GTACCTACTTGGGTTCTAACCTGTTGCTA (site CGACCTACTTA)	0.0562
GTACCTACTTGGGTTCTAACCTGTTGCTA (site GTACCTACTTA)	1.33
GTACGAGCTTGGGTTCTAACCTGTTGCCG (site GTACGAGCTCG)	0.848
GTACGAGCTTGGGTTCTAACCTGTTGCCG (site GTGTGAGCTCG)	0.38
GTACGTCCTTGGGTTCTAACCTGTTGCAT (site GTACGTCCTAA)	0.133
GTACGTCCTTGGGTTCTAACCTGTTGCAT (site GTACGTCCTAC)	1.01
GTACGTCCTTGGGTTCTAACCTGTTGCAT (site GTACGTCCTAG)	0.52
GTACGTCCTTGGGTTCTAACCTGTTGCAT (site GTACGTCCTAT)	1
GTACGTCCTTGGGTTCTAACCTGTTGCCT (site GTACGTCCTAA)	0.112
GTACGTCCTTGGGTTCTAACCTGTTGCCT (site GTACGTCCTAC)	0.352
GTACGTCCTTGGGTTCTAACCTGTTGCCT (site GTACGTCCTAG)	0.482
GTACGTCCTTGGGTTCTAACCTGTTGCCT (site GTACGTCCTAT)	0.0848
GTACTACCTTGGGTTCTAACCTGTTGCCG (site ACGGAGACTAT)	0.198
GTACTACCTTGGGTTCTAACCTGTTGCCG (site GTACTACCTCG)	1.14
GTACTCTCTTGGGTTCTAACCTGTTGCAG (site CCGTCAACTAG)	0.0592
GTACTCTCTTGGGTTCTAACCTGTTGCAG (site GTACTCTCTCT)	1.33
GTAGACCCTTGGGTTCTAACCTGTTGCTG (site GTAGACCCTAC)	1.29
GTAGACCCTTGGGTTCTAACCTGTTGCTG (site GTAGACCCTCA)	2.94

Sequence	recombinant barcode read abundance (log10)
GTAGAGTCTTGGGTTCTAACCTGTTGCTT (site GTAGAGTCTAA)	2.41
GTAGAGTCTTGGGTTCTAACCTGTTGCTT (site GTGGAGTCTAG)	0.685
GTAGCCACTTGGGTTCTAACCTGTTGCCT (site GTAGCCACTAG)	2.37
GTAGCCACTTGGGTTCTAACCTGTTGCCT (site GTCGCCACTAG)	0.449
GTAGCCACTTGGGTTCTAACCTGTTGCCT (site GTGGCCACTAG)	0.791
GTAGCCACTTGGGTTCTAACCTGTTGCCT (site GTTGCCACTAG)	1.06
GTAGGCGCTTGGGTTCTAACCTGTTGCCT (site GTAGGCGCTAG)	1.96
GTAGGCGCTTGGGTTCTAACCTGTTGCCT (site GTCGGCGCTAG)	0.33
GTAGGCGCTTGGGTTCTAACCTGTTGCCT (site GTGGGCGCTAG)	0.441
GTAGGCGCTTGGGTTCTAACCTGTTGCCT (site GTTGGCGCTAG)	0.0331
GTAGGGACTTGGGTTCTAACCTGTTGCCT (site GAAGGGACTAG)	1.34
GTAGGGACTTGGGTTCTAACCTGTTGCCT (site GCAGGGACTAG)	0.806
GTAGGGACTTGGGTTCTAACCTGTTGCCT (site GGAGGGACTAG)	0.439
GTAGGGACTTGGGTTCTAACCTGTTGCCT (site GTAGGGACTAG)	1.97
GTAGGGTCTTGGGTTCTAACCTGTTGCCT (site GTAGGGTCTAG)	2.41
GTAGGGTCTTGGGTTCTAACCTGTTGCCT (site TTGGGGTCTAG)	0.324
GTATACCCTTGGGTTCTAACCTGTTGCAT (site GTATACCCTAT)	2.34
GTATACCCTTGGGTTCTAACCTGTTGCAT (site GTATACCCTTG)	0.224
GTATCCACTTGGGTTCTAACCTGTTGCTA (site GTATCCACTTA)	1.47
GTATCCACTTGGGTTCTAACCTGTTGCTA (site GTATGCCCTTA)	0.0561

Reference: the supplement of paper PMC11208160
